In patent US8580811B2 (Ligand Pharmaceuticals Incorporated, priority 2005, dated 2013):

Target: T1, human AR (Homo sapiens, UniProt P10275)
T1 construct: expressed in transfected cells; host or cells: COS-1 cells
T1 sequence (P10275 1-920): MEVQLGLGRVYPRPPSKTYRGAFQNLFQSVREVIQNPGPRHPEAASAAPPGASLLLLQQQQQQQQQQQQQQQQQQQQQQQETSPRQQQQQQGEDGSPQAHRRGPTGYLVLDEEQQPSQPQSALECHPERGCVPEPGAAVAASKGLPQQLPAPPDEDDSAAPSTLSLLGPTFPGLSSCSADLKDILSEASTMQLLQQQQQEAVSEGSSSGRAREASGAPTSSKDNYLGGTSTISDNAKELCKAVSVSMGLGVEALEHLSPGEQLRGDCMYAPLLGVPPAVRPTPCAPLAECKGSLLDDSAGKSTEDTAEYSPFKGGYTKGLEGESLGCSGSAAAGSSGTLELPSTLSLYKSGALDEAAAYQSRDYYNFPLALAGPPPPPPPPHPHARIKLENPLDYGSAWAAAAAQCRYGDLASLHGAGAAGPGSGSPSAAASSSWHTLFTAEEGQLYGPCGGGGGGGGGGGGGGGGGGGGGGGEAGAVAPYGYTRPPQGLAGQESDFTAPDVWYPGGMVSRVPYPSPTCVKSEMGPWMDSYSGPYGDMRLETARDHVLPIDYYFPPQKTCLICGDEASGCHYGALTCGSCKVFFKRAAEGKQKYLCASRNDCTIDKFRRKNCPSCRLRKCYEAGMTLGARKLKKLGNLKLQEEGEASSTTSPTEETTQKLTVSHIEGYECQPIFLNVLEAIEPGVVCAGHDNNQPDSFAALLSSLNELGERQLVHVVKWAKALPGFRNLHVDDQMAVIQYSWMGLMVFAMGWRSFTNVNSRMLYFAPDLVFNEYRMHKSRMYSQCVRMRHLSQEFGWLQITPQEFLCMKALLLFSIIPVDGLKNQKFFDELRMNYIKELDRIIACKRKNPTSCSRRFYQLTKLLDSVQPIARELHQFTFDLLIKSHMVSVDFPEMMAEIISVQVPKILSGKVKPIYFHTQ
Assay: IR Binding Assay: whole cell competitive binding of test compounds against 3H-DHT in COS-1 cells transfected with pRShAR
Settings: not given
Description: For the whole cell binding assay, COS-1 cells in 96-well microtiter plates including DMEM-10% FBS were transfected as described above with the following plasmid DNA: pRShAR (2 ng/well), pRS-β-Gal (50 ng/well) and pGEM (48 ng/well). Six hours after transfection, media was removed, the cells were washed with PBS and fresh media was added. The next day, the media was changed to DMEM-serum free to remove any endogenous ligand that might be complexed with the receptor in the cells.
After 24 hours in serum-free media, either a saturation analysis to determine the Kd for tritiated dihydrotestosterone (^3H-DHT) on human AR or a competitive binding assay to evaluate the ability of test compounds to compete with ^3H-DHT for AR was performed. […] For the competitive binding assay, media including 1 nM ^3H-DHT and test compounds in concentrations ranging from 10^−10 to 10^−6 M were added to the cells. Three replicates were used for each sample. After three hours at 37° C., an aliquot of the total binding media at each concentration of ^3H-DHT was removed to estimate the amount of free ^3H-DHT. The remaining media was removed, the cells were washed three times with PBS to remove unbound ligand, and cells were lysed with a Triton X-100-based buffer. The lysates were assayed for amount of bound ^3H-DHT and β-Gal activity using a scintillation counter or spectrophotometer, respectively.
For the saturation analyses, the difference between the total binding and the nonspecific binding, normalized by the β-Gal rate, was defined as specific binding. The specific binding was evaluated by Scatchard analysis to determine the Kd for ^3H-DHT. See e.g., D. Rodbard, “Mathematics and statistics of ligand assays: an illustrated guide” In: J. Langon and J. J. Clapp, eds., Ligand Assay, Masson Publishing U.S.A., Inc., New York, pp. 45-99, (1981), the disclosure of which is herein incorporated by reference. For the competition studies, the data was plotted as the amount of ^3H-DHT (% of control in the absence of test compound) remaining over the range of the dose-response curve for a given compound. […] The Ki values were determined by application of the Cheng-Prusoff equation to the IC50 values, where:
[formula] After correcting for non-specific binding, IC50 values were determined. […] The IC50 value was determined graphically from a log-logit plot of the data. The Ki values were determined by application of the Cheng-Prusoff equation to the IC50 values, the labeled ligand concentration and the Kd of the labeled ligand. see e.g., Cheng, Y. C. and Prusoff, W. H. Biochem. Pharmacol. 22:3099 (1973).

| Structure (SMILES) | Ki [nM] |
| --- | --- |
| Cc1c(C(F)(F)F)n(CC(F)(F)F)c2ccc3[nH]c(=O)cc(C(F)(F)F)c3c12 [Compound 234, 1-Methyl-3-(2,2,2-trifluoro-ethyl)-2,9-bis-trifluoromethyl-3,6-dihydro-pyrrolo[3,2-f]-quinolin-7-one] | < 5 |
| Cc1c(-c2cccc(Br)c2)n(CC(F)(F)F)c2ccc3[nH]c(=O)cc(Cl)c3c12 [Compound 198, 2-(3-Bromophenyl)-9-Chloro-1-methyl-3-(2,2,2-trifluoroethyl)-3,6-dihydro-pyrrolo[3,2-f]-quinolin-7-one] | > 10 |
| Cc1c(-c2cccc([N+](=O)[O-])c2)n(CC(F)(F)F)c2ccc3[nH]c(=O)cc(Cl)c3c12 [Compound 205, 9-Chloro-1-methyl-2-(3-nitrophenyl)-3-(2,2,2-trifluoroethyl)-3,6-dihydro-pyrrolo[3,2-f]quinolin-7-one] | 5 to 10 |
| Cc1c(-c2cccs2)n(CC(F)(F)F)c2ccc3[nH]c(=O)cc(Cl)c3c12 [Compound 207, 9-Chloro-1-methyl-2-thien-2-yl-3-(2,2,2-trifluoroethyl)-3,6-dihydro-pyrrolo[3,2-f]quinolin-7-one] | < 5 |
| Cc1ccc(-c2c(C)c3c4c(Cl)cc(=O)[nH]c4ccc3n2CC(F)(F)F)s1 [Compound 258, 9-Chloro-1-methyl-2-(5-methyl-2-thiophenyl)-3-(2,2,2-trifluoroethyl)-3,6-dihydro-pyrrolo[3,2-f]quinolin-7-one] | < 5 |
| Cc1c(C)n(CCC(F)(F)F)c2ccc3[nH]c(=O)cc(C(F)(F)F)c3c12 [Compound 221, 1,2-Dimethyl-9-trifluoromethyl-3-(3,3,3-trifluoropropyl)-3,6-dihydro-pyrrolo[3,2-f]-quinolin-7-one] | < 5 |
| COc1ccc(C2C(C)c3c(ccc4[nH]c(=O)cc(Cl)c34)N2CC(F)(F)F)cc1 (racemic) [Compound 148, (±)-9-Chloro-2-(4-methoxy-phenyl)-1-methyl-3-(2,2,2-trifluoroethyl)-1,2,3,6-tetrahydro-pyrrolo[3,2-f]quinolin-7-one] | 5 to 10 |
| Cc1c(C(F)(F)F)n(CC(F)(F)F)c2ccc3[nH]c(=O)cc(Cl)c3c12 [Compound 229, 9-Chloro-1-methyl-3-(2,2,2-trifluoro-ethyl)-2-trifluoromethyl-3,6-dihydro-pyrrolo[3,2-f]-quinolin-7-one] | < 5 |
| Cc1c(C)n(CCC(C)(C)O)c2ccc3[nH]c(=O)cc(C(F)(F)F)c3c12 [Compound 239, 3-(3-Hydroxy-3-methyl-butyl)-1,2-dimethyl-9-trifluoromethyl-3,6-dihydro-pyrrolo[3,2-f]-quinolin-7-one] | > 10 |
| Cc1ccc(-c2c(C)c3c4c(Cl)cc(=O)[nH]c4ccc3n2C[C@@H](O)C(F)(F)F)s1 [Compound 285, (R)-9-Chloro-1-methyl-2-(5-methylthiophen-2-yl)-3-(3,3,3-trifluoro-2-hydroxy-propyl)-3,6-dihydro-pyrrolo[3,2-f]quinolin-7-one] | < 5 |
| Cc1c(-c2ccc(Cl)cc2)[nH]c2ccc3[nH]c(=O)cc(Cl)c3c12 [Compound 118, 9-Chloro-2-(4-chlorophenyl)-1-methyl-3,6-dihydro-pyrrolo[3,2-f]quinolin-7-one] | < 5 |
| C=CCn1c(C)c(C)c2c3c(C(F)(F)F)cc(=O)[nH]c3ccc21 [Compound 236, 3-Allyl-1,2-dimethyl-9-trifluoromethyl-3,6-dihydro-pyrrolo[3,2-f]quinolin-7-one] | < 5 |
| Cc1c(C)n(CCCNCCO)c2ccc3[nH]c(=O)cc(C(F)(F)F)c3c12 [Compound 289, 1,2-Dimethyl-3-[3-(2-hydroxy-ethylamino)-propyl]-9-trifluoromethyl-3,6-dihydro-pyrrolo[3,2-f]quinolin-7-one] | > 10 |
| Cc1c(C)n(CC(O)C(F)(F)F)c2ccc3[nH]c(=O)cc(C(F)(F)F)c3c12 (racemic) [Compound 243, (±)-1,2-Dimethyl-3-(3,3,3-trifluoro-2-hydroxy-propyl)-9-trifluoromethyl-3,6-dihydro-pyrrolo[3,2-f]-quinolin-7-one] | < 5 |
| CCC1C(C)c2c(ccc3[nH]c(=O)cc(Cl)c23)N1CC(F)(F)Cl (racemic) [Compound 176, (±)-9-Chloro-3-(2-Chloro-2,2-difluoroethyl)-2-ethyl-1-methyl-1,2,3,6-tetrahydro-pyrrolo[3,2-f]quinolin-7-one] | < 5 |
| Cc1c(C)n(CCc2cccs2)c2ccc3[nH]c(=O)cc(Cl)c3c12 [Compound 189, 9-Chloro-1,2-dimethyl-3-(2-thien-2-yl-ethyl)-3,6-dihydro-pyrrolo[3,2-f]quinolin-7-one] | > 10 |
| CCc1[nH]c2ccc3[nH]c(=O)cc(Cl)c3c2c1C [Compound 106, 9-Chloro-2-ethyl-1-methyl-3,6-dihydro-pyrrolo[3,2-f]quinolin-7-one] | 5 to 10 |
| CC(=O)OCCCn1c(C)c(C)c2c3c(C(F)(F)F)cc(=O)[nH]c3ccc21 [Compound 250, 3-(3-Acetoxypropyl)-1,2-dimethyl-9-trifluoromethyl-3,6-dihydro-pyrrolo[3,2-f]quinolin-7-one] | < 5 |
| Cc1[nH]c2ccc3[nH]c(=O)cc(Cl)c3c2c1CC(=O)O [Compound 122, (9-Chloro-2-methyl-7-oxo-6,7-dihydro-3H-pyrrolo[3,2-f]quinolin-1-yl)-acetic acid] | < 5 |
| CCc1c(-c2cccs2)n(CC(F)(F)F)c2ccc3[nH]c(=O)cc(Cl)c3c12 [Compound 209, 9-Chloro-1-ethyl-2-thien-2-yl-3-(2,2,2-trifluoroethyl)-3,6-dihydro-pyrrolo[3,2-f]quinolin-7-one] | < 5 |
| Cc1cc2c(ccc3[nH]c(=O)cc(Cl)c32)[nH]1 [Compound 112, 9-Chloro-2-methyl-3,6-dihydro-pyrrolo[3,2-f]quinolin-7-one] | > 10 |
| Cc1c(-c2ccccc2F)[nH]c2ccc3[nH]c(=O)cc(Cl)c3c12 [Compound 119, 9-Chloro-2-(2-fluorophenyl)-1-methyl-3,6-dihydro-pyrrolo[3,2-f]quinolin-7-one] | < 5 |
| Cc1c(C)n(CC(O)CCl)c2ccc3[nH]c(=O)cc(C(F)(F)F)c3c12 (stereo not shown) [Compound 294, 3-(3-chloro-2-hydroxypropyl)-1,2-dimethyl-9-trifluoromethyl-3,6-dihydro-pyrrolo[3,2-f]-quinolin-7-one] | < 5 |

Same assay, conditions: competition with 1 nM 3H-DHT, transfected COS-1 cells, 3 h at 37° C., Cheng-Prusoff from IC50; read-out: Ki

| Structure (SMILES) | Ki [nM] |
| --- | --- |
| Cc1c(-c2ccc(Cl)cc2)n(CC(F)(F)F)c2ccc3[nH]c(=O)cc(Cl)c3c12 [Compound 206, 9-Chloro-2(4-chlorophenyl)-1-methyl-3-(2,2,2-trifluoroethyl)-3,6-dihydro-pyrrolo[3,2-f]quinolin-7-one] | > 10 |
| Cc1ccc(-c2c(C)c3c4c(Cl)cc(=O)[nH]c4ccc3n2CC(F)(F)F)o1 [Compound 256, 9-Chloro-1-methyl-2-(5-methyl-2-furyl)-3-(2,2,2-trifluoroethyl)-3,6-dihydro-pyrrolo[3,2-f]-quinolin-7-one] | < 5 |
